Reference: patent publication US20060127980A1, “Human excitatory amino acid transporter-2 gene promoter and uses thereof” (priority 2003, published 2006)

What was measured:
hEAAT2 expression = hEAAT2 expression in PHFA, readout not specified; type: cell-based, human
hEAAT2 protein = test: Western blot of EAAT2 protein in PHFA; type: cell-based, human
Protocol: FIG. 5A-E. Effect of pharmacological inhibitors on hEAAT2 promoter activity, and mRNA and protein expression in PHFA following various treatment protocols. A. hEAAT2 promoter activity in PHFA, either untreated (−) or treated with EGF (30 ng/ml), in the absence (−) or presence (+) of KT5720 (5 μM), AG1478 (1 μM), PDTC (100 μM), wortmannin (WRT) (100 nM) or PD98049 (PD) (50 μM). B. hEAAT2 promoter activity in PHFA, either untreated (−) or treated with bromo-cAMP (250 μM) in the absence (−) or presence (+) of KT5720 (5 μM), AG1478 (1 μM), PDTC (100 μM), wortmannin (WRT) (100 nM) or PD98049 (PD) (50 μM). C. hEAAT2 promoter activity in PHFA, either untreated (−) or treated with TNF-α (200 U/ml), in the absence (−) or presence (+) of KT5720 (5 μM), AG1478 (1 μM), PDTC (100 μM), wortmannin (WRT) (100 nM) or PD98049 (PD) (50 μM). D. The effect of the various treatment protocols on hEAAT2 and GAPDH mRNA levels. Upper panel presents relative hEAAT2 RNA expression versus GAPDH expression relative to control untreated or treated samples based on scanning of autoradiograms. Lower panel, actual Northern blots. E. The effect of the various treatment protocols on EAAT2 and ACTIN protein levels. Upper panel presents relative EAAT2 protein expression versus ACTIN expression relative to control untreated or treated samples based on scanning of autoradiograms. Individual experiments were performed 3 times using triplicate samples and S.D. from the mean is presented.
(§1) Northern and Western Blotting Assays. Total cellular RNA was isolated by the guanidinium/phenol extraction method and Northern blotting was performed as described (Huang et al., 2001, Oncogene 20(48):7051-7063; Su et al., 2000, Oncogene 19(30):3411-3421; Su et al., 2001, Nucleic Acids Res 29(8):1661-1671). Western blotting assays were performed as described (Su et al., 1998, Proc Natl Acad Sci USA 95(24):14400-14405; Su et al., 2002, Oncogene 21(22):3592-602).

hEAAT2 transcription = test: Nuclear run-on assay of hEAAT2 transcription in PHFA; type: cell-based, human; conditions: 7-day treatment
Protocol: (§2) FIG. 4A-D. Effect of modulators of hEAAT2 activity on hEAAT2 expression and hEAAT2 promoter activity in PHFA. A. A Northern analysis of hEAAT2 and GAPDH mRNA expression following treatment with EGF (30 ng/ml), TGF-α (30 ng/ml), dbcAMP (200 μM, bromo-cAMP (100 μM) or TNF-α (200 U/ml) for 7 days. B. Nuclear run-on assays determining the relative rates of hEAAT2 and GAPDH transcription as a function of 7-day treatment with the same concentrations of the indicated agents. C. A time course of mRNA expression of hEAAT2 and GAPDH following treatment with EGF, bromo-cAMP or TNF-α (same concentrations as in A.). D. Fold luciferase activity in PHFA transfected with flhEAAT2Prom-luc or various deletion mutants of hEAAT2 and non-transfected controls treated with the indicated compounds for four days.
Primer Extension Analysis and Nuclear Run-on Assays. Primer extension assays were performed as described (Su et al., 2000, Oncogene 19(30):3411-3421). A primer with the sequence 5′-[…]-3′ (SEQ ID NO:6) complementary to the 5′ UTR of the hEAAT2 cDNA was used for this assay. Nuclear run-on assays were performed as described (Su et al., 1997, Proc Natl Acad Sci USA 94(17):9125-9130).
To examine whether stimulation of hEAAT2 expression involves transcriptional changes, nuclear run-on assays were performed.

hEAAT2 promoter = test: flhEAAT2Prom-luc and deletion mutant luciferase reporter assay in PHFA treated with modulators; type: cell-based, human
Protocol: as §2
Construction of hEAAT2 Promoter Deletion Mutants and Performance of the Luciferase Assays. 5′-deletion mutants of the hEAAT2 promoter were made with exonuclease III digestion using the Erase-A-Base System (Promega) as described for the PEG-3 promoter (Su et al., 2000, Oncogene 19(30):3411-3421). The flhEAAT2Prom-luc and flhEAAT2Prom-luc deletion mutants were cloned into the pGL3-basic luciferase reporter vector (Promega) and luciferase reporter assays were performed as described (Su et al., 2000, Oncogene 19(30):3411-3421; Su et al., 2001, Nucleic Acids Res 29(8):1661-1671), except that instead of using lipofectamine, which was toxic to PHFA, the calcium phosphate precipitation transfection technique was used (Babiss et al., 1986, Proc Natl Acad Sci USA 83(7):2167-2171).
Preferential Expression of the hEAAT2 Promoter in PHFA and Deletion Analysis of the hEAAT2 Promoter. hEAAT2 is expressed in brain-derived cells, mainly astrocytes (Tanaka et al., 1997, Science 276(5319):1699-1702; Anderson et al., 2000, Glia 32(1):1-14). Experiments were performed to confirm hEAAT2 promoter activity in normal human astrocytes and to determine expression levels in other cell types (FIG. 2A). Primary early passage and established human normal and tumor cell lines were co-transfected with a putative full-length ˜2.5 kb hEAAT2 promoter, a SacII fragment extending from bp −2426 to bp +44, was cloned into the pGL3-basic vector (Promega), where it drove expression of the firefly luciferase (luc) gene, and a pSV-β-galactosidase expression plasmid. Relative fold expression of a full length hEAAT2 promoter-luciferase (flhEAAT2Prom-luc) construct was determined as described (Su et al., 2000, Oncogene 19(30):3411-3421; Su et al., 2001, Nucleic Acids Res 29(8):1661-1671), and activity versus transfection with a pSV-β-galactosidase plasmid was calculated as described (Su et al., 2000, Oncogene 19(30):3411-3421; Su et al., 2001, Nucleic Acids Res 29(8):1661-1671) to equalize for differences in transfection efficiency.
To examine further the relationship between hEAAT2 and treatment with the various glutamate transporter modulators, transient transfection assays were performed in PHFA using the flhEAAT2Prom-luc constructs and various deletions thereof (FIG. 4D). […] In the case of dbcAMP, promoter activity was enhanced by ˜3-fold.

glutamate uptake by PHFA = conditions: Fine et al., 1996; cited from earlier work
hEAAT2 mRNA = test: Northern blot of hEAAT2 mRNA in PHFA treated with modulators; type: cell-based, human
Protocol: as §2, §1
Positive and Negative Regulation of hEAAT2 Transcription, Promoter Activity and mRNA Levels in PHFA. Several enhancers of GLT-1 expression in rat astrocytes have been identified, including epidermal growth factor (EGF), transforming growth factor-α (TGF-α) and dibutyryl cyclic AMP (dbcAMP) (Swanson et al., 1997, J Neurosci 17(3):932-940; Zelenaia et al., 2000, Mol Pharmacol 57(4):667-678). Based on these considerations, experiments were performed to determine if these agents similarly modify human hEAAT2 expression in PHFA. Consistent with previous observations in rat astrocytes, 7-day treatment with EGF, TGF-α, and two analogs of cAMP, dbcAMP and bromo-cAMP, stimulated hEAAT2 mRNA expression in PHFA, whereas TNF-α decreased expression (FIG. 4B). […] In contrast, TNF-α decreased expression by 48 h (FIG. 4C).

## TNF-α
hEAAT2 expression
  hEAAT2 expression: decreased
hEAAT2 protein
  hEAAT2 protein levels: decreased
hEAAT2 transcription
  relative rate of transcription of hEAAT2 RNA compared with GAPDH: decreased
hEAAT2 promoter
  hEAAT2 promoter activity (in words): inhibited
Glutamate uptake by PHFA
  glutamate uptake by PHFA: inhibits
hEAAT2 mRNA; 7-day treatment, EGF 30 ng/ml, TGF-α 30 ng/ml, dbcAMP 200 μM, bromo-cAMP 100 μM, TNF-α 200 U/ml
  hEAAT2 mRNA expression: decreased
hEAAT2 mRNA; time course, bromo-cAMP enhanced, TNF-α decreased
  time by which hEAAT2 mRNA expression was changed: ≤ 48 h
